Test results from patent US20250338850A1, “COMPOSITION AND METHOD FOR CONTROLLING WEEDS IN TURFGRASS” (SYNGENTA CROP PROTECTION AG, priority 2022, published 2025).

Assays:
kikuyugrass = test: Turfgrass injury trial on kikuyugrass; type: in vivo
Text: In a kikuyugrass trial, trifloxysulfuron (TSS) (Monument 75 WDG) was applied solo at 28 g ai/ha and compared to a mixture of TSS and metcamifen (MET). The TSS-MET mixture contains trifloxysulfuron and meticamifen at a ratio of 20 to 75 g. Both Monument and the TSS-MET mixture were applied at 28 g ai/ha TSS.

[1] = test system: St Augustinegrass variety 'Classic'; test: Turfgrass injury trial on St Augustinegrass variety 'Classic'; type: in vivo
Text: In a trial conducted on St Augustinegrass variety ‘Classic’, trifloxysulfuron (TSS) (Monument 75 WDG) was applied at 28 g ai/ha with and without metcamifen applied at 30, 75 and 150 g ai/ha. Two applications were applied on a 30-day interval (initial treatment and second treatment).

SMILES	trifloxysulfuron safening (kikuyugrass; TSS-MET mixture at 28 g ai/ha TSS)	injury at all rating dates ([1]; TSS 28 g ai/ha with metcamifen at 30, 75 and 150 g ai/ha, all rating dates)	trifloxysulfuron safening ([1]; metcamifen 30, 75 and 150 g ai/ha with TSS 28 g ai/ha)	injury, 7DAA-2 (kikuyugrass; 28 g ai/ha TSS, 7 days after application 2) [a %]	injury, 14DAA-1 (kikuyugrass; 28 g ai/ha TSS, 14 days after application 1) [a %]	injury, 14 DAA-2 (kikuyugrass; 28 g ai/ha TSS, 14 days after application 2) [a %]	injury, 21 DAA-1 (kikuyugrass; 28 g ai/ha TSS, 21 days after application 1) [a %]	injury, 21 DAA-2 (kikuyugrass; 28 g ai/ha TSS, 21 days after application 2) [a %]	injury, 28 DAA-1 (kikuyugrass; 28 g ai/ha TSS, 28 days after application 1) [a %]	injury, 28 DAA-2 (kikuyugrass; 28 g ai/ha TSS, 28 days after application 2) [a %]	injury (kikuyugrass; trifloxysulfuron solo 28 g ai/ha, two applications on a 28-day interval) [%]	injury, 9 DAIT (Initial Treatment) ([1]; TSS 28 g ai/ha, 9 days after the initial application) [%]	injury, 17 DAIT ([1]; TSS 28 g ai/ha, 17 days after the initial application) [%]	injury, 24 DAIT ([1]; TSS 28 g ai/ha, 24 days after the initial application) [%]	injury, 30 DAIT (Second Treatment) ([1]; TSS 28 g ai/ha, 30 days after the initial application) [%]	injury, 41 DAIT ([1]; TSS 28 g ai/ha, two applications, 30-day interval, 41 days after the initial application) [%]	injury, 51 DAIT ([1]; TSS 28 g ai/ha, two applications, 30-day interval, 51 days after the initial application) [%]
CNC(=O)Nc1ccc(S(=O)(=O)NC(=O)c2ccccc2OC)cc1 [Metcamifen, 2-Methoxy-N-[[4-[[(methylamino)carbonyl]amino]phenyl]sulfonyl]benzamide]	almost complete trifloxysulfuron safening	Less than 5%	almost complete trifloxysulfuron safening	–	–	–	–	–	–	–	–	–	–	–	–	–	–
COc1cc(OC)nc(NC(=O)NS(=O)(=O)c2ncccc2OCC(F)(F)F)n1 [TSS (Monument), N-[[(4,6-dimethoxy-2-pyrimidinyl)amino]carbonyl]-3-(2,2,2-trifluoroethoxy)-2-pyridinesulfonamide]	–	–	–	40	22.5	40	37.4	40	34.9	32.5	40	71	85	98	85	80	81
